From patent publication US5705533A, “10-thio-substituted 1,8-dihydroxy-9 (10H) -anthracenone pharmaceuticals” (Teva Pharmaceutical Industries Ltd., priority 1995, dated 1998)
Read-outs that look alike come from different tables or passages of the source.

How the values were obtained:
[1] = Unna 1916; cited from earlier work
5-LO = target: T1, 5-LO (Bos taurus, UniProt F1MQ78); assay: Bovine PMNL 5-Lipoxygenase Assay (inhibition of 5-HETE and LTB4 biosynthesis); assay type: cell-based; conditions: for inhibition at 30 µM: PMNL, read-out: 5-LO percent inhibition
T1 construct: Polymorphonuclear leukocytes (PMNL) were prepared from sodium EDTA-anticoagulated bovine blood; endogenous in cells; host or cells: bovine polymorphonuclear leukocytes isolated from EDTA-anticoagulated blood (intact cells, A23187-stimulated)
T1 sequence (F1MQ78 1-674): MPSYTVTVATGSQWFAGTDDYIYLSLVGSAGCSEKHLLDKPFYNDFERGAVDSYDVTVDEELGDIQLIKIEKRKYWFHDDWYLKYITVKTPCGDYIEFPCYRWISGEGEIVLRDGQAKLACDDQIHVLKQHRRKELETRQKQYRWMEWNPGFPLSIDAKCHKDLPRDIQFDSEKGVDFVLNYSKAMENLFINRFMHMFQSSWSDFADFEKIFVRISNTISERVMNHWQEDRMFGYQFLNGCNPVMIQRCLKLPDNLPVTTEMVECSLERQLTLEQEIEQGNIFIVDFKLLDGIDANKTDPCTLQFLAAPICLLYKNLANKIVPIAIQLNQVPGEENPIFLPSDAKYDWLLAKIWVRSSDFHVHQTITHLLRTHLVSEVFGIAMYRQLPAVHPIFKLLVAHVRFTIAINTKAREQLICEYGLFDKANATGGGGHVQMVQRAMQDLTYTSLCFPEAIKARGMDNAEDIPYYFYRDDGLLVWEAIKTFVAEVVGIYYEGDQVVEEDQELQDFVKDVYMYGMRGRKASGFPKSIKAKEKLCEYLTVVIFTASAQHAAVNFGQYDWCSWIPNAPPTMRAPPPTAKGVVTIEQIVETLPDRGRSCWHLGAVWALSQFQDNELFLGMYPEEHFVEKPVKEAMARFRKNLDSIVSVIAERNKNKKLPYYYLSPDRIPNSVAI
Description: Polymorphonuclear leukocytes (PMNL) were prepared from sodium EDTA-anticoagulated bovine blood, essentially as described by Walstra, P. et al., "Leukotriene Formation by Bovine Polymorphonuclear Leukocytes", Biochim. Biophys. Acta, 795,499-503 (1984). Contaminating platelets were removed by repeated centrifugations at 100 g for 20 min. The purified PMN leukocytes were suspended at a concentration of 1×10^7 cells/ml in phosphate buffered saline (PBS, composed of 8.00 g NaCl, 0.20 g KCl, 1.00 g Na2 HPO4 .cndot.2H2 O, 0.15 g NaH2 PO4 .cndot.H2 O, 0.20 g KH2 PO4, adjusted to pH 7.4 with 3 N NH3 in a final volume of 1000 ml of double distilled H2 O). Cell counts were conducted with a Sysmex microcellcounter CC-130. Preincubation was performed with 2.4 ml of the suspension and 10 μl of a DMSO stock solution of each test compound at the desired concentration in PBS or vehicle control (DMSO at final concentration of 0.4%) for 15 min at 37° C. in a shaking water bath. The syntheses of LTB 4 and 5-HETE were stimulated by the addition of CaCl2 and Ca-ionophore A23187 (final concentrations 2 mM and 20 μM, respectively), and the incubation was conducted for 10 min at 37° C. 5-LO product formation was terminated by the addition of 3.0 ml of methanol/acetonitrile (1+1) containing NDGA as radical scavenger (final concentration 0.01 mM) and prostaglandin B2 PG B2 as chromatographic marker (final concentration 0.3 μM). The incubation mixture was kept in an ice bath for 20 min and then centrifuged at 4000 g for 5 min at 0° C. The supernatant was diluted with 5 ml of water and passed through a prewashed (10 ml of methanol and 5 ml of water, sequentially) octadecylsilane reversed phase cartridge (Baker). The eicosanoids were eluted with 3 ml of methanol, diluted with 3 ml of water and subjected to reversed phase high performance liquid chrometography (HPLC) analysis, performed on a 250×4 mm column packed with Nucleosil C18 (7 μm particles; Bischoff, Leonberg, Germany). The isocratic elution conditions of LTB4 were tetrahydrofuran (THF)/methanol/water/acetic acid (25+30+45+0.1), adjusted to pH 5.5 with concentrated NH3, at a flow rate of 0.9 ml/min (Kontron 420 pump), monitored at 280 nm with a Kontron 735 LC UV detector, whereas 5-HETE was monitored at 232 nm using methanol/water/acetic acid (77+23+0.1), pH 5.5,flow rate 1.0ml/min. Data were recorded on a MacLab data acquisition system (WissTech, Germany) and analysis was performed with the application Peaks on an Apple Macintosh Quadra 700 computer. Integrated areas of the peaks were compared to the PGB2 internal standard and to external standards of test samples. Molar absorption coefficients of Samuelsson et al., Borgeat, P. and B. Samuelsson, "Arachidonic Acid Metabolism in Polymorphonuclear Leukocytes: Effects of Ionophore A23187", Proc. Nat. Acad. Sci. USA, 76, 2148-2152 (1979), were used for calculations. Inhibition was calculated by comparison of the mean values of test compound (n=3) with control (n=6-8) activity: (1-test compound/control)×100.
By the above method, the anthracenone derivatives of the invention were evaluated for their ability to inhibit the production of LTB4 and 5-HETE in isolated bovine polymorphonuclear leucocytes (PMNL), see Walstra, P. et al., "Leukotriene Formation by Bovine Polymorphonuclear Leukocytes", Biochim. Biophys. Acta, 795,499-503 (1984); Dannhardt, G. and also M. Lehr, "In-Vitro Evaluation of 5-Lipoxygenase and Cyclo-Oxygenase Inhibitors Using Bovine Neutrophils and Platelets and HPLC", J. Pharm. Pharmacol., 44, 419-424 (1992). LTB4 and 5-HETE concentrations were measured by reversed-phase HPLC with UV detection.

HaCaT cells = assay: Antiproliferative Activity Assay, HaCaT cell growth; assay type: cell-based, human; conditions: 48 h
Description: HaCaT cells, a rapidly multiplying human keratinocyte cell line, were grown in Dulbecco's modified Eagle medium (DMEM), No. 041-11965A, Gibco) supplemented with 10% fetal calf serum, penicillin (100U/ml), streptomycin (100 μg/ml) in a humidified incubator containing 8% CO2 at 37° C. Cells ([…] /1.1 ml suspension per well) were seeded on 24-wells-multidishes and grown in DMEM. After 24 hours growth the medium was replaced with fresh medium and the test compounds (0.1-5 μM) were added. […] Controls were performed with DMSO or with medium alone. Forty-eight hours after addition of the test compound to the culture, the medium was removed and each well was rinsed with 100 μL PBS. The cells were then incubated with sterile 0.5% trypsin, 0.2% EDTA in PBS for 20 minutes at 37° C. The detached cells from each well were suspended in DMEM and dispersed into single cells by gentle pipetting through an Eppendorf pipette, and cell growth was determined directly by counting the keratinocytes in a Neubauer counting chamber using phase contrast microscopy. Inhibition was calculated by comparison of the mean values of the test compound (N=3) with the control (N=6-8) activity: (1-test compound/control)×100.

[2] = system: LTB4 production in bovine neutrophils; conditions: read-out: Inhibition of production of LTB4, IC50; cited from earlier work
[3] = system: LTB4 production in human neutrophils; conditions: depending on cell density, read-out: Inhibition of production of LTB4, IC50; cited from earlier work
[4] = therapeutic application; cited from earlier work
[5] = Homo sapiens, HaCaT, HaCaT cells, N = 3, read-out: AA IC50 (antiproliferative activity)
[6] = HaCaT cells, N = 3, read-out: AA IC50 (antiproliferative activity)

O=C1c2ccccc2Cc2cccc(O)c21 [1-hydroxy-9(10H)-anthracenone]
Therapeutic effect in psoriasis [1]: effective in the treatment of psoriasis

COC(=O)CSC1c2cccc(O)c2C(=O)c2c(O)cccc21 [3-A, reference compound]
IC50 (5-LO): 13 µM
IC50 (HaCaT cells; [5]): 190 µM

CCOC(=O)CSC1c2cccc(O)c2C(=O)c2c(O)cccc21 [3-B, reference compound]
inhibition at 30 µM (5-LO): 42%
IC50 (HaCaT cells; [5]): 4.52 µM

O=C1c2c(O)cccc2C(SCc2ccccc2)c2cccc(O)c21 [4A, reference compound]
inhibition at 30 µM (5-LO): 46%
IC50 (HaCaT cells; Homo sapiens, HaCaT, read-out: AA IC50 (antiproliferative activity)): 1.4 µM

CCCCOC(=O)CSC1c2cccc(O)c2C(=O)c2c(O)cccc21 [Compound 3a]
inhibition at 30 µM (5-LO): 8%
IC50 (HaCaT cells; [5]): 2.1 µM

CC(SC1c2cccc(O)c2C(=O)c2c(O)cccc21)C(=O)O (centres unmarked) [Compound 3b]
inhibition at 30 µM (5-LO): 28%
IC50 (HaCaT cells; [5]): 0.2 µM

COC(=O)CCSC1c2cccc(O)c2C(=O)c2c(O)cccc21 [Compound 3c]
IC50 (5-LO; read-out: 5-LO IC50): 15 µM
IC50 (HaCaT cells; [5]): 1.1 µM

CCOC(=O)CCSC1c2cccc(O)c2C(=O)c2c(O)cccc21 [Compound 3d]
inhibition at 30 µM (5-LO): 30%
IC50 (HaCaT cells; [5]): 1.6 µM

CCCCOC(=O)CCSC1c2cccc(O)c2C(=O)c2c(O)cccc21 [Compound 3e]
inhibition at 30 µM (5-LO): 62%
IC50 (HaCaT cells; [5]): 2.3 µM

O=C1c2c(O)cccc2C(SCCCS)c2cccc(O)c21 [Compound 3f]
inhibition at 30 µM (5-LO): 14%
IC50 (HaCaT cells; [5]): 0.77 µM

COc1ccccc1SC1c2cccc(O)c2C(=O)c2c(O)cccc21 [Compound 3i]
IC50 (5-LO; read-out: 5-LO IC50): 6.3 µM
IC50 (HaCaT cells; [5]): 4.25 µM

COc1cccc(SC2c3cccc(O)c3C(=O)c3c(O)cccc32)c1 [Compound 3j]
inhibition at 30 µM (5-LO): 100%
IC50 (HaCaT cells; [5]): 1.8 µM

COc1ccc(SC2c3cccc(O)c3C(=O)c3c(O)cccc32)cc1 [Compound 3k]
IC50 (5-LO; read-out: 5-LO IC50): 3.2 µM
IC50 (HaCaT cells; [5]): 1.69 µM

Nc1ccccc1SC1c2cccc(O)c2C(=O)c2c(O)cccc21 [Compound 3l]
IC50 (5-LO; read-out: 5-LO IC50): 2.4 µM
IC50 (HaCaT cells; HaCaT cells, N = 3, listed as 31, read-out: AA IC50 (antiproliferative activity)): ≤ 0.1 µM
IC50 (HaCaT cells; [5]): 0.1 µM

Nc1cccc(SC2c3cccc(O)c3C(=O)c3c(O)cccc32)c1 [Compound 3m]
IC50 (5-LO; read-out: 5-LO IC50): 2.4 µM
IC50 (HaCaT cells; [5]): 1.9 µM

Nc1ccc(SC2c3cccc(O)c3C(=O)c3c(O)cccc32)cc1 [Compound 3n]
IC50 (5-LO; read-out: 5-LO IC50): 7.5 µM
IC50 (HaCaT cells; [5]): 0.9 µM

O=C1c2c(O)cccc2C(Sc2ccccc2O)c2cccc(O)c21 [Compound 4a]
IC50 (5-LO; read-out: 5-LO IC50): 5 µM
IC50 (HaCaT cells; [5]): 1.75 µM

O=C1c2c(O)cccc2C(Sc2ccc(O)cc2)c2cccc(O)c21 [Compound 4b, 1,8-Dihydroxy-10-[(4-hydroxyphenyl)thio]-9(10H)-anthracenone]
IC50 (5-LO; read-out: 5-LO IC50): 2.4 µM
IC50 (HaCaT cells; [6]): ≤ 0.1 µM
IC50 (HaCaT cells; [5]): < 0.1 µM

O=C1c2c(O)cccc2C(Sc2ccccc2S)c2cccc(O)c21 [Compound 4c]
IC50 (HaCaT cells; [6]): ≤ 0.1 µM
IC50 (HaCaT cells; [5]): 0.1 µM

O=C1c2c(O)cccc2C(Sc2cccc(S)c2)c2cccc(O)c21 [Compound 4d]
IC50 (HaCaT cells; [5]): > 5 µM

O=C1c2c(O)cccc2Cc2cccc(O)c21 [anthralin, 1,8-dihydroxy-9(10H)-anthracenone]
IC50 [2]: 37 µM
Therapeutic effect in psoriasis [1]: effective in the treatment of psoriasis
IC50 (5-LO; read-out: 5-LO IC50): 37 µM
IC50 [3]: 7 to 74 µM
Irritation / side effects [4]: non-affected skin surrounding a psoriatic lesion to which anthralin is applied frequently becomes irritated
IC50 (HaCaT cells; [5]): 0.6 µM

CCCC(=O)C1c2cccc(O)c2C(=O)c2c(O)cccc21 [butantrone, 10-Butyryl-Dithranol]
Irritation / side effects [4]: elicits a widespread and delayed irritation effect in many patients
